Laboratory results reported in EP1525218B1, “BICYCLIC OLIGOPEPTIDES AND THEIR USE AS GLUCAGON RECEPTOR ANTAGONISTS” (Boehringer Ingelheim Pharma GmbH & Co.KG, priority 2002, dated 2004).
Where two headings read alike, the source gives them in different places. Positions of bridges follow the written chain, without caps; N, C: chain ends. Residues, ends and D or L forms follow the SMILES beside them.

Legend:
[1] = Metabolic stability with liver cytosol; assay type: in vitro ADME; conditions: substrate initial conc. 1 µM, 37°C, up to 45 min
Procedure: (§1) Incubations with preparations of microsomes and cytosol and with plasma under conditions as described below are suitable to investigate the metabolic stability of test compounds (e.g. oxidative metabolism reactions and hydrolysis by esterases). The metabolic stability of the test compounds of examples 1 and 2 is investigated in liver microsomes and cytosol of humans, dogs and rats and in plasma of humans and rats.
(§2) Incubations of test compounds (final concentration: 1 µM) are performed with liver microsomes and cytosol (0.5 mg protein/ml) in Tris buffer (Tris-(hydroxymethyl)-aminomethane) pH 7.4 (0.1 M) containing magnesium chloride (5 mM) at 37°C for up to 45 min in a total volume of 100 µl. The reaction is initiated by addition of β-nicotinamide adenine dinucleotide phosphate, reduced form (NADPH, 1 mM) and terminated by addition of acetonitrile. After vortex mixing and centrifugation the supernatants are analyzed.
(§3) The samples are analyzed by on-line solid phase extraction and reversed phase HPLC coupled to electro-spray ionization tandem mass spectrometry. The measurements are performed on a triple quad mass spectrometer Quattro II (Micromass, Manchester, UK). The instrument operates at nominal mass resolution in SIR-mode. The analytes are quantified by detection of their quasimolecular ions [M+2H]^2+ m/z 1019 (Example 1) and m/z 1026 (Example 2).

Stability in plasma = assay type: in vitro ADME; conditions: Rat Plasma; substrate initial conc. 1 µM; 37°C, up to 45 min
Procedure: as §1
Incubations of test substrates (final concentration: 1 µM) are performed with human and rat plasma (heparin) containing 0.1 M Tris buffer pH 7.4. The reaction is initiated by addition of the test compound at 37°C for up to 45 min and terminated by addition of acetonitrile. After vortex mixing and centrifugation the supernatants are analyzed.
as §3

[2] = Metabolic stability with liver microsomes; assay type: in vitro ADME; conditions: substrate initial conc. 1 µM, 37°C, up to 45 min
Procedure: as §1, §2, §3

Solubility in buffer = assay type: physicochemical
Text: and the following solubilities:

human glucagon receptor = target: T1, human glucagon receptor (Homo sapiens, UniProt P47871); test: Glucagon binding assay (competition binding with 125I-glucagon, BHK-21 cell membranes)
T1 construct: expressed in transfected cells; host or cells: BHK-21(C-13) baby hamster kidney cells, stably transfected (pcDNA3.1 construct, G-418 selection); plasma membranes
T1 sequence (P47871 26-477): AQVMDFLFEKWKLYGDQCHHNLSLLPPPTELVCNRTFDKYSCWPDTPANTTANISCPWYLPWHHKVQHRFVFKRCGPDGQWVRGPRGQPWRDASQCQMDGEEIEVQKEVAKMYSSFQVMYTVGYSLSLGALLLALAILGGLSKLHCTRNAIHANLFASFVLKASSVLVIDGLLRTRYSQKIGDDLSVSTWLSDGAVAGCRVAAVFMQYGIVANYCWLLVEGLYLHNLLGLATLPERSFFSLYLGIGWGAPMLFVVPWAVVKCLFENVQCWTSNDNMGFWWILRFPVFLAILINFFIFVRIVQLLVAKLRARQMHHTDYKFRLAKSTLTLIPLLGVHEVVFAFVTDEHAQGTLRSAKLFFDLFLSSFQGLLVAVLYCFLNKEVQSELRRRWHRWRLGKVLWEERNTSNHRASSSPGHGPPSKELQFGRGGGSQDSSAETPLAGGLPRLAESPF
Procedure: Binding of peptides to the glucagon receptor was assayed in a competition binding-assay using a membrane fraction containing the cloned human glucagon receptor and radiolabeled glucagon. The cDNA coding for the human glucagon receptor was cloned into expression vector pcDNA3.1 (Invitrogene). Baby hamster kidney cells (BHK-21(C-13) cells (ATCC)) were transfected with the expression construct for the human glucagon receptor and a stably transfected cell clone was isolated after selection with G-418 (Gibco). Plasma membranes containing the human glucagon receptor were prepared from stably transfected BHK-21 cells. Cells were grown to confluence, washed and detached with ice cold PBS buffer (Gibco), containing 0.05% EDTA and collected in PBS buffer. The cells were collected by centrifugation and suspended in 20 volumes of ice-cold tris buffer (10 mM tris/HCl, pH7.2; 0.01 mM PMSF (Phenylmethylsulfonyl fluoride)) and incubated for 90 minutes. […] The protein-bound radioactivity is separated from unbound ligand by filtration and washing on a Multiscreen-[…] (Millipore) using GC/B filters (Packard) and measured after addition of 20 μl Microscint 20 in a topcount scintillation counter (Packard). The non-specific binding is defined as radioactivity bound in the presence of 1 μM glucagon (Wherl GmbH). Accordingly an IC50 value can be calculated from the results obtained in the above test method. […]

CC[C@H](C)[C@@H]1NC(=O)[C@@H]2CC(=O)NCC(=O)N[C@@H](CC(C)C)C(=O)N3CCC[C@H]3C(=O)N[C@@H](Cc3c[nH]c4ccccc34)C(=O)NCC(=O)N[C@@H](CSSC[C@@H](C(=O)O)NC(=O)[C@H](C)NC(=O)[C@H](Cc3c[nH]c4ccccc34)NC(=O)[C@@H]3CCCN3C(=O)[C@H]([C@@H](C)O)NC(=O)[C@H](CC(N)=O)NC(=O)[C@H](Cc3c[nH]c4ccccc34)NC(=O)CNC(=O)[C@@H]3CCCN3C1=O)C(=O)N1CCC[C@H]1C(=O)N[C@@H](CO)C(=O)N2 [Example 1] (GLPWGCPSDIPGWNTPWAC-OH; disulfide 6-19; lactam N-9)
Half-lives, (t½ [min]) ([1]; Dog Cytosol): stable | Half-lives, (t½ [min]) ([1]; Human Cytosol): stable | Half-lives, (t½ [min]) ([1]; Rat Cytosol): stable | Half-lives, (t½ [min]) (Stability in plasma): stable | Half-lives, (t½ [min]) ([2]; Dog Micros): stable | Half-lives, (t½ [min]) ([2]; Human Micros): stable | Half-lives, (t½ [min]) ([2]; Rat Micros): stable | solubilities (Solubility in buffer; Buffer pH 3.0): 0.003 mg/mL | solubilities (Solubility in buffer; Buffer pH 7.4): 0.120 mg/mL | solubilities (Solubility in buffer; Buffer pH 10.0): 0.092 mg/mL | IC50 (human glucagon receptor; competition with 125I-glucagon, membranes with cloned human glucagon receptor, read-out: IC50): 100 nM

CC[C@H](C)[C@@H]1NC(=O)[C@@H]2CC(=O)NCC(=O)N[C@@H](CC(C)C)C(=O)N3CCC[C@H]3C(=O)N[C@@H](Cc3c[nH]c4ccccc34)C(=O)NCC(=O)N[C@@H](CSSC[C@@H](C(=O)OC)NC(=O)[C@H](C)NC(=O)[C@H](Cc3c[nH]c4ccccc34)NC(=O)[C@@H]3CCCN3C(=O)[C@H]([C@@H](C)O)NC(=O)[C@H](CC(N)=O)NC(=O)[C@H](Cc3c[nH]c4ccccc34)NC(=O)CNC(=O)[C@@H]3CCCN3C1=O)C(=O)N1CCC[C@H]1C(=O)N[C@@H](CO)C(=O)N2 [Example 2] (GLPWGCPSDIPGWNTPWAC-OMe; disulfide 6-19; lactam N-9)
Half-lives, (t½ [min]) (Stability in plasma): stable | Half-lives, (t½ [min]) ([2]; Dog Micros): stable | Half-lives, (t½ [min]) ([2]; Human Micros): stable | Half-lives, (t½ [min]) ([2]; Rat Micros): stable | solubilities (Solubility in buffer; Buffer pH 3.0): 0.003 mg/mL | solubilities (Solubility in buffer; Buffer pH 7.4): 0.002 mg/mL | solubilities (Solubility in buffer; Buffer pH 10.0): 0.004 mg/mL | IC50 (human glucagon receptor): 135 nM
